Laboratory results as given in paper PMC9502776, “Assessment of the Effects of Chitosan, Chitooligosaccharides and Their Derivatives on Lemna minor” (Molecules, 2022).
Converted amounts (≈) assume the structure as drawn. Counter-ions that a name gives are not always drawn.

Legend:
Lemna minor = Lemna minor growth inhibition assay (OECD Test No. 221); type: in vivo; details: for aquatic toxicity category according to U.S. EPA: based on the calculated EC50 values against Lemna minor
Method: Four types of polymers were tested, namely low- (ChiS), medium- (ChiM) and high- (ChiL) molecular-weight chitosan and chitosan with a degree of deacetylation of approximately 50% (Chi50). The chitosan samples were tested in three concentrations (50 mg/L, 500 mg/L and 5000 mg/L) and were obtained by dissolving the polymers in 0.3% acetic acid, followed by dilution with culture medium in a 1:2 ratio.
Four types of chitooligosaccharides were tested: D-glucosamine hydrochloride (G), N-acetyl-D-glucosamine (NAG or A), chitobiose dihydrochloride (2G), and carboxymethyl chitosan (CMChi). Three chitooligosaccharides (G, NAG, 2G) were tested in three concentrations: 5 mg/L, 50 mg/L and 250 mg/L, being dissolved directly into L. minor culture medium. CMChi was tested in four concentrations (50 mg/L, 250 mg/L, 500 mg/L and 5000 mg/L) and the solutions were prepared by dissolving the polymer directly in L. minor culture medium.
Lemna minor, the common duckweed, was used as a test organism for the assessment of growth response of the tested chitosan samples and chitooligosaccharides through a growth inhibition assay. Standard conditions as described in OECD guideline were maintained during both L. minor culture and growth inhibition assay.
The effects of the chitosan samples and the chitooligosaccharides were tested using a number of 10 fronds per test vessel, with an exposure period of 7 days. In the same conditions, two controls were tested: a negative control (C−), represented by culture medium, and a positive control (C+), represented by 0.5% zinc chloride. All samples and controls were tested in triplicate.
The endpoints of the growth inhibition test were represented by number of fronds, which was used for the plotting of dose–response curves and the calculation of half maximal effective concentration (EC50). The tested samples were classified into aquatic ecotoxicity categories according to U.S. EPA [47] based on the calculated EC50 values: very highly toxic (<0.1 mg/L), highly toxic (>0.1–1 mg/L), moderately toxic (>1–10 mg/L), slightly toxic (>10–100 mg/L) and practically non-toxic (>100 mg/L).
PAST software was used for the statistical analysis of data, with Quest Graph™ EC50 Calculator [65] being used for the calculation of EC50 values. The Shapiro–Wilk W test was used for assessing the normality of the data, with the distribution analysis being followed by an ANOVA analysis. The normally distributed data were analyzed with parametric tests, the homogeneity of variance among treatments was determined through Levene’s test, with Tuckey’s post hoc test being used for the analysis of variances. The non-normally distributed data were analyzed with the Kruskal–Wallis test, variances being further analyzed using Dunn’s post hoc test. The Pearson linear r correlation test was used for all correlation analysis. The differences were considered significant for p values < 0.05.

Lemna trisulca = tested on: Lemna trisulca; set-up: method as in PMID 17074410; details: ref [48], cited from earlier work
Lemna gibba = tested on: Lemna gibba; set-up: method as in PMID 16666961; details: D-glucosamine 50 mM, ref [49]; cited from earlier work
[1] = number of fronds, exposure period of 7 days

| SMILES | aquatic toxicity category according to U.S. EPA (Lemna minor) | EC50 against Lemna minor (Lemna minor; [1]) [µg/mL] | also measured |
| --- | --- | --- | --- |
| CC(=O)N[C@@H]1[C@@H](O)[C@H](O)[C@@H](CO)O[C@@H]1O [A, N-acetyl-D-glucosamine] | practically non-toxic (practically non-toxic (>100 mg/L)) | 678.22 (≈ 3.07 mM) | – |
| N[C@H]1C(O)O[C@H](CO)[C@@H](O)[C@@H]1O (stereo partly drawn) [D, D-glucosamine] | – | – | level of zeaxanthin and antheraxanthin, times higher than the control (Lemna trisulca; Lemna trisulca): approximately 30 times; inhibition of violaxanthin synthesis from zeaxanthin and antheraxanthin (Lemna trisulca; even at a concentration of 0.01%): induced the inhibition; inhibition of the respiration rate (Lemna gibba): 30% |
| N[C@H]1C(O)O[C@H](CO)[C@@H](O)[C@@H]1O (stereo partly drawn) [G, D-glucosamine hydrochloride] | slightly toxic (slightly toxic (>10–100 mg/L)) | – | EC50 (Lemna minor; Lemna minor, 168 h, number of fronds, exposure period of 7 days, read-out: EC50 against Lemna minor): 11.6 µg/mL |
| Cl.N[C@H]1[C@H](O[C@H]2[C@H](O)[C@@H](N)C(O)O[C@@H]2CO)O[C@H](CO)[C@@H](O)[C@@H]1O (some centres unmarked) [2G, chitobiose dihydrochloride] | – | 266.36 | – |
